Earlier results on one compound are cited in US20080213362A1, “COMPOSITIONS AND METHODS USING TORSEMIDE” (priority 2007, published 2008).

Molecules are shown by their SMILES.

For data set [1] the following is noted: diabetic or pre-diabetic patient, even during treatment with an anti-diabetic agent.
The conditions of data set [2]: 2.5 mg once daily.

Consider `Cc1cccc(Nc2ccncc2S(=O)(=O)NC(=O)NC(C)C)c1` [torsemide], for which the “effect on blood sugar levels” value in data set [1] is on record as “worsen blood sugar levels”. For the same compound, in data set [2], the anti-hypertensive effects result is on record as “statistically significant anti-hypertensive effects”.
